Assay results published in patent US20200325177A1, “METHODS OF MAKING STREPTOGRAMIN COMPOSITIONS AND THE USE THEREOF” (THE REGENTS OF THE UNIVERSITY OF CALIFORNIA, priority 2017, published 2020).
Converted amounts (≈) assume the structure as drawn. Where two headings read alike, the source gives them in different places.

Columns and labels:
Assay type in all cases: cell-based
[1] = tested on: H. influenzae ATCC 49247; assay: MIC, Gram-negative bacteria: H. influenzae ATCC 49247; conditions: Haemophilus influenzae, ATCC49247, read-out: Minimal Inhibitory Concentration (MIC) H. influenzae ATCC 49247
[2] = tested on: E. faecalis; assay: MIC, Gram-positive bacteria: E. faecalis; conditions: Enterococcus faecalis, column 1, read-out: Minimal Inhibitory Concentration (MIC) E. faecalis
[3] = tested on: E. faecium VRE; vanA; assay: MIC, Gram-positive bacteria: E. faecium VRE; vanA; conditions: Enterococcus faecium, column 3, read-out: Minimal Inhibitory Concentration (MIC) E. faecium VRE
[4] = tested on: P. aeruginosa ATCC 27853; assay: MIC, Gram-negative bacteria: P. aeruginosa ATCC 27853; conditions: Pseudomonas aeruginosa, ATCC27853, read-out: Minimal Inhibitory Concentration (MIC) P. aeruginosa ATCC 27853
[5] = tested on: S. aureus; assay: MIC, Gram-positive bacteria: S. aureus (strains not named); conditions: Staphylococcus aureus, read-out: Minimal Inhibitory Concentration (MIC) S. aureus
[6] = tested on: Gram-Negative Organisms; assay: microbe, parasite or virus in culture
[7] = tested on: K. pneumoniae multidrug-resistant; assay: MIC, Gram-negative bacteria: K. pneumoniae multidrug-resistant; conditions: Klebsiella pneumoniae, read-out: Minimal Inhibitory Concentration (MIC) K. pneumoniae multidrug-resistant
[8] = tested on: S. pneumoniae; assay: MIC, Gram-positive bacteria: S. pneumoniae; conditions: Streptococcus pneumoniae, column 10, read-out: Minimal Inhibitory Concentration (MIC) S. pneumoniae
[9] = tested on: E. faecium ATCC 35667; assay: MIC, Gram-positive bacteria: E. faecium ATCC 35667; conditions: Enterococcus faecium, ATCC35667, column 2, read-out: Minimal Inhibitory Concentration (MIC) E. faecium ATCC 35667
[10] = tested on: S. aureus Linezolid-resistant; cfr; assay: MIC, Gram-positive bacteria: S. aureus Linezolid-resistant; cfr; conditions: Staphylococcus aureus, column 9, read-out: Minimal Inhibitory Concentration (MIC) S. aureus Linezolid-resistant
[11] = tested on: P. aeruginosa MDR clinical isolate; assay: MIC, Gram-negative bacteria: P. aeruginosa MDR clinical isolate; conditions: Pseudomonas aeruginosa, read-out: Minimal Inhibitory Concentration (MIC) P. aeruginosa MDR clinical isolate
[12] = tested on: S. aureus Vat A streptogramin; assay: MIC, Gram-positive bacteria: S. aureus Vat A streptogramin; conditions: Staphylococcus aureus; Gram-positive; column 5; read-out: Minimal Inhibitory Concentration (MIC) S. aureus Vat A streptogramin
[13] = first unnamed S. aureus column (c4)
[14] = fourth unnamed S. aureus column (c8)
[15] = second unnamed S. aureus column (c6)
[16] = third unnamed S. aureus column (c7)
[17] = Acinetobacter baumannii, ATCC19606, read-out: Minimal Inhibitory Concentration (MIC), A. baumannii ATCC 19606
[18] = Escherichia coli, ATCC25922, read-out: Minimal Inhibitory Concentration (MIC), E. coli ATCC 25922
[19] = Escherichia coli, read-out: Minimal Inhibitory Concentration (MIC), E. coli BAS2006, OMP C, OMP F
[20] = Escherichia coli, read-out: Minimal Inhibitory Concentration (MIC), E. coli olC efflux defective
[21] = Escherichia coli, read-out: Minimal Inhibitory Concentration (MIC), E. coli permeability mutant BAS1314, IMP4213ZAB::TN10
[22] = Escherichia coli, read-out: Minimal Inhibitory Concentration (MIC), E. coli ΔompC768, KanR insert
[23] = Klebsiella pneumoniae, ATCC43816, read-out: Minimal Inhibitory Concentration (MIC), K. pneumoniae ATCC 43816

Structure (SMILES) | MIC [1] [µg/mL] | MIC [2] [µg/mL] | MIC [3] [µg/mL] | MIC [4] [µg/mL] | MIC [5, 13] [µg/mL] | MIC [5, 14] [µg/mL] | MIC [5, 15] [µg/mL] | MIC [5, 16] [µg/mL] | MIC [6, 17] [µg/mL] | MIC [6, 18] [µg/mL] | MIC [6, 19] [µg/mL] | MIC [6, 20] [µg/mL] | MIC [6, 21] [µg/mL] | MIC [6, 23] [µg/mL] | MIC [7] [µg/mL] | MIC [8] [µg/mL] | MIC [9] [µg/mL] | MIC [10] [µg/mL] | MIC [11] [µg/mL] | MIC [12] [µg/mL] | also measured
CC1=C\[C@@H](O)CC(=O)Cc2nc(co2)C(=O)N[C@H](Cc2ccc(O)cc2)C(=O)O[C@H](C(C)C)[C@H](C)/C=C/C(=O)NC\C=C\1 [SA0202097] | > 64 | > 64 | > 64 | > 64 | > 64 | > 64 | > 64 | > 64 | > 64 | > 64 | > 64 | 32 (≈ 53.9 µM) | 32 (≈ 53.9 µM) | > 64 | > 64 | 64 (≈ 108 µM) | > 64 | > 64 | > 64 | > 64 | MIC [6, 22]: > 64 µg/mL
CC1=C\[C@@H](O)C[C@@H](F)Cc2nc(cs2)C(=O)N2CCC[C@@H]2C(=O)O[C@H](C(C)C)[C@H](C)/C=C/C(=O)NC\C=C\1 [SA0110279] | 0.25 (≈ 0.456 µM) | > 64 | 1 (≈ 1.83 µM) | > 64 | 0.5 (≈ 0.913 µM) | 0.5 (≈ 0.913 µM) | 0.5 (≈ 0.913 µM) | 1 (≈ 1.83 µM) | > 64 | 32 (≈ 58.4 µM) | 0.25 (≈ 0.456 µM) | 1 (≈ 1.83 µM) | < 0.06 | > 64 | > 64 | 1 (≈ 1.83 µM) | 0.5 (≈ 0.913 µM) | > 64 | > 64 | 8 (≈ 14.6 µM) | MIC [6, 22]: 32 µg/mL (≈ 58.4 µM)
CC1=C\[C@@H](O)CC(=O)Cc2nc(co2)C(=O)N2CCC[C@@H]2C(=O)O[C@H]([C@H](C)COC(=O)Nc2ccc(C(F)(F)F)cc2)[C@H](C)/C=C/C(=O)NC\C=C\1 [SA0110193] | > 64 | > 64 | > 64 | > 64 | 8 (≈ 10.9 µM) | 8 (≈ 10.9 µM) | 8 (≈ 10.9 µM) | 16 (≈ 21.9 µM) | > 64 | > 64 | > 64 | 8 (≈ 10.9 µM) | 4 (≈ 5.47 µM) | > 64 | > 64 | > 64 | 8 (≈ 10.9 µM) | > 64 | > 64 | 16 (≈ 21.9 µM) | MIC [6, 22]: > 64 µg/mL
CC1=C\[C@@H](O)CC(=O)Cc2nc(co2)C(=O)N2CCC[C@@H]2C(=O)O[C@H]([C@H](C)COC(=O)Nc2cnccn2)[C@H](C)/C=C/C(=O)NC\C=C\1 [SA0110215] | 16 (≈ 24.1 µM) | > 64 | > 64 | > 64 | > 64 | > 64 | > 64 | > 64 | > 64 | > 64 | > 64 | 8 (≈ 12 µM) | 16 (≈ 24.1 µM) | > 64 | > 64 | 64 (≈ 96.3 µM) | 64 (≈ 96.3 µM) | > 64 | > 64 | > 64 | MIC [6, 22]: > 64 µg/mL
CC1=C\[C@@H](O)CC(=O)Cc2nc(co2)C(=O)N2CCC[C@@H]2C(=O)O[C@H]([C@@H](C)COC(=O)Nc2csc(C)n2)[C@H](C)/C=C/C(=O)NC\C=C\1 [SA0110098] | 32 (≈ 46.8 µM) | > 64 | 64 (≈ 93.6 µM) | > 64 | 64 (≈ 93.6 µM) | 32 (≈ 46.8 µM) | 32 (≈ 46.8 µM) | 64 (≈ 93.6 µM) | > 64 | > 64 | 16 (≈ 23.4 µM) | 2 (≈ 2.92 µM) | 8 (≈ 11.7 µM) | > 64 | > 64 | 16 (≈ 23.4 µM) | 16 (≈ 23.4 µM) | > 64 | > 64 | > 64 | –
CC1=C\[C@@H](O)CC(=O)Cc2nc(co2)C(=O)N2CCC[C@@H]2C(=O)O[C@H]([C@@H](C)COC(=O)Nc2coc(C)n2)[C@H](C)/C=C/C(=O)NC\C=C\1 [SA0110095] | 64 (≈ 95.8 µM) | > 64 | > 64 | > 64 | > 64 | 64 (≈ 95.8 µM) | > 64 | > 64 | > 64 | > 64 | 32 (≈ 47.9 µM) | 8 (≈ 12 µM) | 16 (≈ 24 µM) | > 64 | > 64 | 16 (≈ 24 µM) | 32 (≈ 47.9 µM) | > 64 | > 64 | > 64 | –
CC1=C\[C@@H](O)CC(=O)Cc2nc(co2)C(=O)N2CCC[C@@H]2C(=O)O[C@H]([C@@H](C)COC(=O)Nc2ccc(F)cc2)[C@H](C)/C=C/C(=O)NC\C=C\1 [SA0110036] | > 64 | > 64 | 32 (≈ 47 µM) | > 64 | 32 (≈ 47 µM) | 16 (≈ 23.5 µM) | 32 (≈ 47 µM) | > 64 | > 64 | > 64 | 8 (≈ 11.8 µM) | 2 (≈ 2.94 µM) | 8 (≈ 11.8 µM) | > 64 | > 64 | 16 (≈ 23.5 µM) | 8 (≈ 11.8 µM) | > 64 | > 64 | > 64 | –
COc1ccc(NC(=O)OC[C@H](C)[C@H]2OC(=O)[C@H]3CCCN3C(=O)c3coc(n3)CC(=O)C[C@H](O)/C=C(C)/C=C/CNC(=O)/C=C/[C@H]2C)cc1 [SA0110040] | 16 (≈ 23.1 µM) | > 64 | 64 (≈ 92.4 µM) | > 64 | 32 (≈ 46.2 µM) | 16 (≈ 23.1 µM) | 32 (≈ 46.2 µM) | 64 (≈ 92.4 µM) | > 64 | > 64 | 16 (≈ 23.1 µM) | 2 (≈ 2.89 µM) | 8 (≈ 11.5 µM) | > 64 | > 64 | 16 (≈ 23.1 µM) | 16 (≈ 23.1 µM) | > 64 | > 64 | > 64 | –
CC1=C\[C@@H](O)CC(=O)Cc2nc(co2)C(=O)N2CCC[C@@H]2C(=O)O[C@H]([C@H](C)COC(=O)Nc2csc(C)n2)[C@H](C)/C=C/C(=O)NC\C=C\1 [SA0110214] | 16 (≈ 23.4 µM) | > 64 | 64 (≈ 93.6 µM) | > 64 | 64 (≈ 93.6 µM) | 64 (≈ 93.6 µM) | 64 (≈ 93.6 µM) | > 64 | > 64 | > 64 | 64 (≈ 93.6 µM) | 8 (≈ 11.7 µM) | 8 (≈ 11.7 µM) | > 64 | > 64 | 32 (≈ 46.8 µM) | 32 (≈ 46.8 µM) | > 64 | > 64 | > 64 | MIC [6, 22]: > 64 µg/mL
CC1=C\[C@@H](O)CC(=O)Cc2nc(co2)C(=O)N2CCC[C@@H]2C(=O)O[C@H]([C@@H](C)COC(=O)Nc2ccc(OC(F)(F)F)cc2)[C@H](C)/C=C/C(=O)NC\C=C\1 [SA0110041] | > 64 | > 64 | > 64 | > 64 | > 64 | 32 (≈ 42.9 µM) | > 64 | > 64 | > 64 | > 64 | > 64 | 8 (≈ 10.7 µM) | 8 (≈ 10.7 µM) | > 64 | > 64 | > 64 | 8 (≈ 10.7 µM) | > 64 | > 64 | > 64 | –
CC1=C\[C@@H](O)CC(=O)Cc2nc(co2)C(=O)N2CCC[C@@H]2C(=O)O[C@H](C(C)(C)C)[C@H](C)/C=C/C(=O)NC\C=C\1 [SA0306004] | > 64 | > 64 | > 64 | > 64 | 32 (≈ 59.1 µM) | 32 (≈ 59.1 µM) | 64 (≈ 118 µM) | 64 (≈ 118 µM) | > 64 | > 64 | 4 (≈ 7.38 µM) | 4 (≈ 7.38 µM) | 4 (≈ 7.38 µM) | > 64 | > 64 | 64 (≈ 118 µM) | 32 (≈ 59.1 µM) | > 64 | > 64 | > 64 | –
